Test [1] has as its system HL-60 Acute promyelocytic leukemia. The experiment in a line: Tumor growth inhibition, HL-60 xenograft. Conditions: qd, intraperitoneal. The test is classed as in vivo, athymic nude mice. As for the experimental part:
(§1) An in vivo study was conducted to evaluate the efficacy of compounds of Formula (I) in suppressing tumor growth in multiple human cancer types.
(§2) Eight-week-old athymic nude mice were group-housed under conditions of constant photoperiod (12 h light/12 h dark at 21-23° C. and 60-85% humidity) with ad libitum access to sterilized food and water. All animal experiments followed ethical standards, and protocols were reviewed and approved by the Animal Use and Management Committee of National Taiwan University. Each mouse was inoculated subcutaneously with 1×10^6˜1×10^7 human cancer cells in a total volume of 0.1 mL serum-free medium containing 50% Matrigel (BD Biosciences). As tumors became established (˜100 mm^3), mice were randomized to various groups to be treated with pre-determined materials (n=6-8/group): (i) control group: 0.5% DMSO/0.5% Cremophor/90% D5W and (ii) treatment groups: Compounds 12 and 28 at pre-determined doses daily. Mice received treatment by intraperitoneal injection for the duration of the study. Tumors were measured weekly using calipers. Tumor size, in mm^3, was calculated according to the formula: Tumor volume=(w^2×l)/2, where w and 1 respectively represent the width and length (both in mm) of the tumor.

The next test addresses T1, HDAC6 (Homo sapiens, UniProt Q9UBN7).
T1 construct: purchased BPS Bioscience Corp
T1 sequence (Q9UBN7 1-1215): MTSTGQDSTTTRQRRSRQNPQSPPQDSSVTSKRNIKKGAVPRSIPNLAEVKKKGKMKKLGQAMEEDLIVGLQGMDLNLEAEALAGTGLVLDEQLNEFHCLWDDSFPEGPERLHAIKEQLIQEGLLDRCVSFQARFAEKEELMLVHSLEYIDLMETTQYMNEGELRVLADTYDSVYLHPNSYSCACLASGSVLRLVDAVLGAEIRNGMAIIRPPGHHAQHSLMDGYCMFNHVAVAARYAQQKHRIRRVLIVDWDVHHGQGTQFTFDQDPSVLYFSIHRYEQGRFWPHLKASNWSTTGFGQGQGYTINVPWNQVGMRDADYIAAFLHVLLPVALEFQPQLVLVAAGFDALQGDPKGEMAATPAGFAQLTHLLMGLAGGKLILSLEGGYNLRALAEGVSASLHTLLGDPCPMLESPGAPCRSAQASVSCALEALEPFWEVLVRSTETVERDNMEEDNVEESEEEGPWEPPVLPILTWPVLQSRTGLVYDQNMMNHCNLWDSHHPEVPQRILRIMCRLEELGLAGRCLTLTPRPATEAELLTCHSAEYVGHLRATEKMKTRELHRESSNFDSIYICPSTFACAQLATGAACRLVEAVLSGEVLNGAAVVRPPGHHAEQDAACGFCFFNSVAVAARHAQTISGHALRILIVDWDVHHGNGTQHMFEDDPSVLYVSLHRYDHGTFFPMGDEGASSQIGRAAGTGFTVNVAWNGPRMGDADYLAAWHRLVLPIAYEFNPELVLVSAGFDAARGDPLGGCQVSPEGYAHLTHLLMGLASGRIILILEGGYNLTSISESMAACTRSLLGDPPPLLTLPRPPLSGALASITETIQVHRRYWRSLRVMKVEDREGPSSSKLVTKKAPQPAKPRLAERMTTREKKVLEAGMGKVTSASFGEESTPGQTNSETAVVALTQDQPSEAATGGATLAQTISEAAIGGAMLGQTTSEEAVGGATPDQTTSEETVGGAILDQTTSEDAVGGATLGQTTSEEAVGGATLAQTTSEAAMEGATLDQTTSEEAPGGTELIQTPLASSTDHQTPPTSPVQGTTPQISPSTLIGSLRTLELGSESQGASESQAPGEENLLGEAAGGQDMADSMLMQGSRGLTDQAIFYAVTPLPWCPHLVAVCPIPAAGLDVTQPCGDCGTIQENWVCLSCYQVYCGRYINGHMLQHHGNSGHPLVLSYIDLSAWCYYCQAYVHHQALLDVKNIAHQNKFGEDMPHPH
In words: Fluorogenic HDAC assay, HDAC6. The test is classed as biochemical. An excerpt:
Of note, there are eighteen human HDACs. Eleven of them, designated as HDAC1-11, are zinc-dependent. Seven of them, designated as Sirt1-7, are NAD+-dependent.
Fluorogenic HDAC assay kits were used to assess the ability of HDAC inhibitors to inhibit deacetylation of lysine residues on a substrate by recombinant proteins HDAC1, 3, 4, 5, 6, 7, 8, 9 and Sirt1 according to the manufacturer's instructions (BPS Bioscience Corp., San Diego, Calif., USA).

The target of another test is T2, HDAC6-dynein binding (Homo sapiens, UniProt Q9UBN7).
T2 construct: endogenous in cells
The experiment in a line: HDAC6-dynein binding (immunoprecipitation, immunoblotting). The settings on record: dose-dependent. The format is cell-based. As for the experimental part:
(§3) A study was conducted to evaluate the activity of a compound of Formula (I) in inhibiting HDAC6-dynein binding and inducing accumulation of polyubiquited proteins.
(§4) Cell lysates were immunoprecipitated overnight at 4° C. with 1 μg of dynein antibody and A/G-agarose beads. The precipitated beads were washed three times with 1 mL of an ice-cold cell lysis buffer solution. The resulting immune complex was resolved by 10% SDS-PAGE gel electrophoresis, followed by immunoblotting assay using anti-HDAC6 Ab.
(§5) The study was performed according to the protocol reported in Chen et al., Journal of Immunology, 2008, 181(12):8441-8449.
Background: In western blotting, separated proteins are transferred to a membrane and probed.

The next test relates to MDA-MB-231 Breast. In words: Tumor growth inhibition, MDA-MB-231 xenograft. The settings on record: qd, intraperitoneal. The format is in vivo, athymic nude mice. As for the experimental part:
as §1, §2

In test [2] the test system is scopolamine-induced memory deficit. The experiment in a line: Elevated plus maze test, scopolamine-treated rats. The format is in vivo. Conditions: gavage twice daily for seven days; scopolamine 1.5 mg/kg i.p. As for the experimental part:
An in vivo study was conducted to evaluate the efficacy of compounds of Formula (I) in improving memory deficits associated with Alzheimer's disease. Compound 12, Compound 28, suberanilohydroxamic acid (50 mg/kg) or vehicle was given to rats by gavage twice daily for seven days prior to behavioral experiments. On the day conducting a behavior assessment, rats in all groups except the control group were administered scopolamine (1.5 mg/kg) by intraperitoneal injection for 30 minutes before the assessment, then a water maze test or an elevated plus maze test was performed. […] The significant reduction in transfer latency time indicated improvement in memory.

The subject of the next test is polyubiquited proteins. In words: Accumulation of polyubiquited proteins. The format is cell-based. The settings on record: dose-dependent. As for the experimental part: as §3, §4, §5
For test [3], the system named is MDA-MB-231 Breast cancer cell line. In words: Antiproliferative activity, MDA-MB-231. The test is classed as cell-based, human. The settings on record: Homo sapiens, MDA-MB-231, MDA-MB-231. As for the experimental part: A study was conducted to evaluate the inhibitory activity of compounds of Formula (I) in inhibiting HDAC6, antiproliferative activity of test compounds in suppressing cancer cell growth, and selectivity of inhibiting HDAC6 over other HDAC isoforms.
The study was performed according to the protocol reported in Hsieh et al., Cell Death and Disease, 2014, April; 5:e1166.
Shown in Table 2 below are antiproliferative activities (measured by their half maximal concentration for inhibiting cell growth, i.e., GI50) of the test compounds against various cancer cell lines.

For `O=C(NO)c1ccc(CNc2cccc3cccnc23)cc1` [Compound 28, N-hydroxy-4-((quinolin-8-ylamino)methyl)benzamide], the “% TGI” value in test [1] (25 mg/kg) is 47.4%; in test [1] (50 mg/kg) it was 61.1%; in the test on MDA-MB-231 Breast (25 mg/kg), 38.6%; in the test with MDA-MB-231 Breast (50 mg/kg), 56.4%. Moreover, the half-inhibitory concentration (IC50) (commonly the concentration needed to halve the response being measured) against HDAC6 was 4.41 nM. Moreover, the HDAC6-dynein binding entry on HDAC6-dynein binding was “inhibited HDAC6-dynein binding”. Moreover, the “transfer latency time (elevated plus maze)” value in test [2] was “significantly rescued scopolamine-mediated increase of transfer latency time”. In the test with polyubiquited proteins, the “accumulation of polyubiquited proteins” value is on record as “induced accumulation of polyubiquited proteins”. For the same compound, in test [3], it took 1890 ± 330 nM to inhibit growth by half (GI50).

The values are drawn from patent publication US11427544B2, “Histone deacetylase 6 inhibitors and use thereof” (TAIPEI MEDICAL UNIVERSITY, priority 2016, dated 2022).
